Assay results taken from ChEMBL document CHEMBL4340541, “Synthesis of andrographolide analogues and their neuroprotection and neurite outgrowth-promoting activities” (Bioorg Med Chem, 2019).
Calls of active or inactive are those of the source. The rule behind the calls is not given here.

Legend:
[1] = test system: PC-12; assay: Neuroprotective activity against H2O2-induced toxicity in rat PC12 cells assessed as increase in cell viability at 20 uM pretreated for 24 hrs followed by H2O2 challenge and measured after 24 hrs by MTT assay; format: functional, cell-based
[2] = test system: PC-12; assay: Neuroprotective activity against H2O2-induced toxicity in rat PC12 cells assessed as increase in cell viability at 10 uM pretreated for 24 hrs followed by H2O2 challenge and measured after 24 hrs by MTT assay; format: functional, cell-based
[3] = test system: PC-12; assay: Induction of neurite outgrowth in NGF-induced rat PC12 cells assessed as neurite bearing cells at 20 uM cotreated with 20 ng/ml NGF incubated for 48 hrs by light microscopy; format: functional
[4] = Lipophilicity, log P of the compound; format: physicochemical; conditions: octanol/water
[5] = test system: PC-12; assay: Neuroprotective activity against 6-OHDA -induced toxicity in rat PC12 cells assessed as increase in cell viability at 20 uM pretreated for 24 hrs followed by 6-OHDA challenge and measured after 24 hrs by MTT assay; format: functional, cell-based
[6] = test system: BV-2; assay: Antiinflammatory activity in mouse BV2 cells assessed as reduction in LPS-induced NO production at 20 uM incubated for 24 hrs by Griess method; format: functional; conditions: for inhibition at 20 µM: BV-2, 24 h
[7] = test system: PC-12; assay: Neuroprotective activity against 6-OHDA -induced toxicity in rat PC12 cells assessed as increase in cell viability at 10 uM pretreated for 24 hrs followed by 6-OHDA challenge and measured after 24 hrs by MTT assay; format: functional, cell-based
[8] = test system: BV-2; assay: Cytotoxicity in mouse BV2 cells assessed as reduction in cell viability; format: cell-based
[9] = test system: BV-2; assay: Antiinflammatory activity in mouse BV2 cells assessed as reduction in LPS-induced NO production incubated for 24 hrs by Griess method; format: functional, cell-based
[10] = test system: BV-2; assay: Neuroprotective activity against microglia-conditioned medium-induced cytotoxicity in rat PC12 cells exposed to conditioned medium derived from mouse BV2 cells assessed as increase in cell viability at 5 to 20 uM by MTT assay; format: functional, cell-based
[11] = test system: BV-2; assay: Antiinflammatory activity in LPS induced mouse BV2 cells assessed as reduction in TNFalpha incubated for 6 hrs by ELISA method; format: functional, cell-based
[12] = test system: BV-2; assay: Antiinflammatory activity in LPS induced mouse BV2 cells assessed as reduction in iNOS expression at 20 uM incubated for 24 hrs by DAPI based fluorescence microscopic method; format: functional, cell-based
[13] = test system: BV-2; assay: Antiinflammatory activity in LPS-induced mouse BV2 cells assessed as reduction in iNOS mRNA expression at 20 uM incubated for 24 hrs by RT-PCR analysis method; format: functional, cell-based
[14] = test system: BV-2; assay: Neuroprotective activity against microglia-conditioned medium-induced cytotoxicity in rat PC12 cells exposed to conditioned medium derived from 24 hrs compound pre-treated mouse BV2 cells assessed as increase in cell viability at 5 to 20 uM by MTT assay; format: functional, cell-based
[15] = test system: BV-2; assay: Antiinflammatory activity in LPS induced mouse BV2 cells assessed as reduction in IL-6 incubated for 24 hrs by ELISA method; format: functional, cell-based
[16] = test system: PC-12; assay: Induction of neurite outgrowth in NGF-induced rat PC12 cells assessed as neurite bearing cells cotreated with 20 ng/ml NGF incubated for 48 hrs by light microscopy; format: functional, cell-based
[17] = test system: PC-12; assay: Induction of neurite outgrowth in NGF-induced rat PC12 cells assessed as neurite bearing cells at 20 uM cotreated with 20 ng/ml NGF incubated for 48 hrs by methylene blue staining based light microscopy; format: functional
[18] = test system: PC-12; assay: Induction of neurite outgrowth in rat PC12 cells assessed as neurite bearing cells in absence of 20 ng/ml NGF incubated for 48 hrs by light microscopy; format: functional, cell-based
[19] = test system: BV-2; assay: Neuroprotective activity against microglia-conditioned medium-induced cytotoxicity in rat PC12 cells co-cultred with mouse BV2 cells assessed as increase in cell viability at 5 to 20 uM incubated for 4 hrs by MTT assay; format: functional, cell-based
[20] = test system: BV-2; assay: Antiinflammatory activity in mouse BV2 cells assessed as reduction in LPS-induced NO production at 1 uM incubated for 24 hrs by Griess method relative to control; format: functional; conditions: BV-2, 24 h
[21] = test system: PC-12; assay: Cytotoxicity against rat PC12 cells assessed as reduction in cell viability incubated for 48 hrs; format: cell-based; conditions: pc-12, 48 h
[22] = test system: PC-12; assay: Induction of neurite outgrowth in NGF-induced rat PC12 cells assessed as neurite bearing cells at 5 to 10 uM cotreated with 20 ng/ml NGF incubated for 48 hrs by light microscopy; format: functional, cell-based

For `C[C@@]1(CO)[C@H](O)CC[C@@]2(C)C3CC(C4=CCOC4=O)O[C@]3(C)CC[C@H]12` (stereo partly specified), the Activity [1] was “Active”, the Activity [2] was “Active” and the Activity [3] was “inactive”. The logP ([4]; read-out: logP) was 2.16, the Activity [5] was “Active” and the inhibition [6] was “inactive”. The Activity [7] was “Active” and the Activity [8] was “Non-Toxic”.

With `C=C1CC[C@@H]2[C@](C)(COC(C)=O)[C@H](OC(C)=O)CC[C@@]2(C)[C@@H]1CCC1C(=O)OC[C@H]1OC(C)=O` (stereo partly specified) the Activity [1] was “inactive”, the Activity [3] was “inactive” and the logP ([4]; read-out: logP) was 3.71. The Activity [5] was “inactive”, the inhibition [6] was “Active” and the Activity [8] was “Non-Toxic”.

In the case of `C=C1CC[C@@H]2[C@](C)(CO)[C@H](O)CC[C@@]2(C)[C@@H]1CCC1=CCOC1=O` [DEOXYANDROGRAPHOLIDE], the Activity [1] is reported as “inactive”, the Activity [3] is reported as “inactive” and the logP ([4]; read-out: logP) is reported as 3.43. The Activity [5] was “inactive”, the inhibition [6] was “inactive” and the Activity [8] was “Non-Toxic”.

In the case of `C=C1CC[C@@H]2[C@](C)(COC(C)=O)[C@H](OC(C)=O)CC[C@@]2(C)[C@@H]1C/C=C1\C=COC1=O`, the Activity [1] is reported as “inactive”, the inhibition [9] is reported as “Dose-dependent effect” and the Activity [10] is reported as “inactive”. For the same compound, the Activity [11] was “Dose-dependent effect”, the Activity [12] was “Active” and the Activity [3] was “inactive”. For the same compound, the logP ([4]; read-out: logP) was 3.87, the Activity [13] was “Active” and the Activity [14] was “Active”. For the same compound, the Activity [5] was “inactive”, the inhibition at 20 µM [6] was 78% and the Activity [15] was “Dose-dependent effect”. For the same compound, the Activity [8] was “Non-Toxic”.

For `CC1=C(CCC2=CCOC2=O)[C@]2(C)CC[C@@H](O)[C@@](C)(CO)[C@H]2CC1`, the Activity [1] was “inactive”, the Activity [16] was “Dose-dependent effect” and the Activity [3] was “Active”. For the same compound, the logP ([4]; read-out: logP) was 2.9, the Activity [17] was 31.2% and the Activity [5] was “inactive”. For the same compound, the inhibition [6] was “inactive”, the Activity [8] was “Non-Toxic” and the Activity [18] was “Active”.

In the case of `C=C1CC[C@@H]2[C@](C)(CO)[C@H](O)CC[C@@]2(C)[C@@H]1C/C=C1/C(=O)OC[C@H]1O` [ANDROGRAPHOLIDE], the Activity [3] is reported as “Active” and the inhibition at 20 µM [6] is reported as 76.7%.

With `C=C1CC[C@@H]2[C@](C)(COC(C)=O)[C@H](OC(C)=O)CC[C@@]2(C)[C@@H]1/C=C/C1=CCOC1=O` the Activity [1] was “inactive”, the Activity [3] was “inactive” and the logP ([4]; read-out: logP) was 3.83. For the same compound, the Activity [5] was “inactive”, the inhibition [6] was “Active” and the Activity [8] was “Non-Toxic”.

With `CC(=O)OC[C@@]1(C)[C@H]2CCC(C)=C(C[C@H](OC(C)=O)C3=CCOC3=O)[C@]2(C)CC[C@H]1OC(C)=O` the Activity [1] was “Active”, the inhibition [9] was “Dose-dependent effect” and the Activity [19] was “Active”. The Activity [10] was “inactive”, the Activity [11] was “Dose-dependent effect” and the Activity [12] was “Active”. For the same compound, the inhibition at 1 µM [20] was 34.4%, the logP ([4]; read-out: logP) was 2.96 and the Activity [13] was “Active”. For the same compound, the Activity [14] was “Active”, the Activity [21] was “Toxic” and the Activity [22] was “inactive”. The Activity [5] was “Active”, the inhibition at 20 µM [6] was 95.7% and the Activity [15] was “Dose-dependent effect”. The Activity [8] was “Non-Toxic”.

For `C=C1CC[C@@H]2[C@](C)(CO)[C@H](O)CC[C@@]2(C)[C@@H]1C/C=C1\C=COC1=O`, the Activity [1] was “inactive”, the Activity [3] was “inactive” and the logP ([4]; read-out: logP) was 3.28. The Activity [5] was “inactive”, the inhibition [6] was “inactive” and the Activity [8] was “Non-Toxic”.

In the case of `C=C1CC[C@@H]2[C@](C)(CO)[C@H](O)CC[C@@]2(C)[C@@H]1/C=C/C1=CCOC1=O`, the Activity [1] is reported as “inactive”, the Activity [16] is reported as “Dose-dependent effect” and the Activity [3] is reported as “<=16.1%”. The logP [4] was 3.23, the Activity [17] was 18.6% and the Activity [5] was “inactive”. For the same compound, the inhibition [6] was “inactive”, the Activity [8] was “Non-Toxic” and the Activity [18] was “Active”.

With `C=C1CC[C@@H]2[C@](C)(CO)[C@H](O)CC[C@@]2(C)[C@@H]1CCC1C(=O)OC[C@H]1O` (stereo partly specified) the Activity [1] was “inactive”, the Activity [3] was “inactive” and the logP ([4]; read-out: logP) was 2.54. For the same compound, the Activity [5] was “inactive”, the inhibition [6] was “inactive” and the Activity [8] was “Non-Toxic”.

With `C=C1CC[C@@H]2[C@](C)(CO[C@@H]3O[C@H](CO)[C@@H](O)[C@H](O)[C@H]3O)CCC[C@@]2(C)[C@@H]1CCC1=CCOC1=O` [NEOANDROGRAPHOLIDE] the Activity [1] was “inactive”, the Activity [16] was “Dose-dependent effect” and the logP ([4]; read-out: logP) was 3.07. The Activity [17] was 21.5%, the Activity [5] was “inactive” and the inhibition [6] was “inactive”. The Activity [8] was “Non-Toxic” and the Activity [18] was “Active”.

For `C=C1CC[C@@H]2[C@](C)(COC(C)=O)[C@H](OC(C)=O)CC[C@@]2(C)[C@@H]1CCC1=CCOC1=O`, the Activity [1] was “inactive”, the Activity [3] was “inactive” and the logP ([4]; read-out: logP) was 4.02. The Activity [5] was “inactive”, the inhibition [6] was “Active” and the Activity [8] was “Non-Toxic”.
